Results published in publication PMC6256925, “The Anti-HIV Actions of 7- and 10-Substituted Camptothecins” (Molecules, 2009).
Converted amounts (≈) assume the structure as drawn. “Also recorded” adds a separate entry of the source. Read-outs that look alike come from different tables or passages of the source.

Experiments:
HIV-1 [1] = tested on: HIV-1; design: method as in PMID 9453250; conditions: latently infected T cell clone; cited from earlier work
HIV-1 [2] = conditions: freshly infected U937 monocytoid cells; cited from earlier work
HIV-1 [3] = tested on: HIV-1; design: method as in PMID 11424110; conditions: by inducing selective apoptosis of HIV infected cells; cited from earlier work
HIV-1IIIB = assay: Syncytia assay (CPE inhibition), HIV-1IIIB in C8166 cells; format: cell-based
Experimental: (§1) In the presence of 100 μL of various concentrations of the tested compound, C8166 cells (4 × 10^5cells/mL) were infected with virus (HIV-1IIIB, HIV-2CBL-20 or HIV-2ROD) at a multiplicity of infection (M.O.I.) of 0.06. The final volume per well was 200 μL. Control assays were performed without the testing compounds in HIV-1 IIIB infected and uninfected cultures. AZT was included as positive control. After three days of culture, the cytopathic effect (CPE) was measured by counting the number of syncytia in each well under an inverted microscope. EC50 was then calculated.

PBMC = assay: MTT-based cytotoxicity assay, PBMC; format: cell-based; conditions: PBMC, MTT
Experimental: (§2) Cell lines (C8166, H9, H9/HIV-1IIIB, Jurkat, Jurkat/HIV-1IIIB) were maintained in RPMI-1640 supplemented with 10% heat-inactivated newborn calf serum (Gibco, Auckland, New Zealand). The cells used in all experiments were in log-phase growth. PBMC from healthy donors were isolated by Ficoll-Hypaque centrifugation, then incubated in complete medium containing 5μg/mL phytohemagglutinin (PHA) (Sigma) and 50 U/mL human recombinant IL-2 for 72 h prior to use for antiviral assays. The laboratory-derived viruses (HIV-1IIIB, HIV-2ROD, HIV-2CBL-20) were obtained from the Medical Research Council (MRC), AIDS Reagent Project (UK) and the NIH AIDS Research and Reference Reagent Program (USA). The clinically isolated HIV-1KM018 was obtained from a naive HIV-1-infected individual in Yunnan Province, China, as described. The 50% HIV-1 tissue culture infectious dose (TCID50) was determined and calculated by the Reed and Muench method. Virus stocks were stored in aliquots at −70 °C.
(§3) Cellular toxicity of compounds 1–3 was assessed by the MTT method, as described previously. Briefly, cells were seeded on a microtiter plate in the absence or presence of various concentrations of compounds in triplicate and incubated at 37 °C in a humid atmosphere of 5% CO2 for three days. Twenty microliters of MTT reagent (5 mg/mL in PBS) was added to each well, then incubated at 37 °C for 4 h. One hundred microliters of 50% DMF-20% SDS was then added. After the formazan was dissolved completely, the plates were read on a Bio-Tek ELx 800 ELISA reader at 595 nm/630 nm. The results were shown as absorbance values, and the CC50 was calculated.

C8166 = assay: MTT-based cytotoxicity assay, C8166; format: cell-based; conditions: C8166, MTT
Experimental: as §3

HIV-1KM018 = assay: Inhibition of HIV-1 p24 antigen production in PBMC; format: cell-based
Experimental: Adequate numbers of PHA activated normal PBMC were incubated with HIV-1KM018 (M.O.I. = 0.03) in presence of varying concentrations of the compound. After 3 h of virus adsorption, the cells were washed twice with PBS and incubated with or without various concentration of compound in culture medium supplemented with 50 U/mL human recombinant IL-2 at 1.2 × 10^6 cells/mL for seven days. Half of the medium was changed with corresponding compound concentrations on the third day. At seven days post-infection, HIV-1 p24 antigen in cell-free culture supernatants was analyzed by ELSIA. The percent inhibition of HIV-1 p24 antigen production in PBMC was calculated.

HIV = tested on: HIV; design: method as in PMID 11725078; conditions: cited from earlier work
HIV-2ROD = assay: Syncytia assay (CPE inhibition), HIV-2ROD in C8166 cells; format: cell-based
Experimental: as §1

[4] = MTT-based cytotoxicity assay, PBMC; format: cell-based; conditions: human
Experimental: as §2, §3

[5] = MTT-based cytotoxicity assay, C8166; format: cell-based; conditions: human
Experimental: as §3

equine anemia virus = tested on: equine anemia virus; design: method as in PMID 11725078; conditions: cited from earlier work
HIV-2CBL-20 = assay: Syncytia assay (CPE inhibition), HIV-2CBL-20 in C8166 cells; format: cell-based
Experimental: as §1

[6] = MTT-based cytotoxicity assay, Jurkat/HIV-1IIIB; format: cell-based; conditions: human, Jurkat/HIV-1IIIB cells
Experimental: as §3

HIV-1IIIB/H9 = assay: Co-cultivation assay (cell-to-cell fusion C8166 with H9/HIV-1IIIB); format: cell-based
Experimental: Cell-to-cell fusion between normal C8166 cells and H9 cells chronically infected withHIV-1IIIB was quantified under an inverted microscope. First, 3 × 10^4 C8166 cells co-cultured with 1 × 10^4 H9/HIV-1IIIB cells in the presence or absence of the compound at varying concentrations. They were incubated at 37 °C in a humidified atmosphere of 5% CO2. Dextran sulfate (DS) was used as positive control. After 6 h incubation, the number of syncytia was scored under an inverted microscope.

H9/HIV-1IIIB [7] = assay: MTT-based cytotoxicity assay, H9/HIV-1IIIB; format: cell-based; conditions: 3 days of incubation; listed as 7-Hydroxymethyl-CPT
Experimental: as §3

[8] = MTT-based cytotoxicity assay, H9/HIV-1IIIB; format: cell-based; conditions: human, H9/HIV-1IIIB cells; H9/HIV-1IIIB, MTT, 3 days
Experimental: as §3

H9/HIV-1IIIB [9] = assay: ELISA in chronically infected H9/HIV-1IIIB cells; format: cell-based; conditions: Human immunodeficiency virus 1
Experimental: Chronically infected cell with HIV-1IIIB (H9/HIV-1IIIB) were washed three times with PBS to remove free virus particle. 200 µL/well (3 × 10^5 cells/mL) of the cell suspension was cultured for three days in a 96-well culture plate with different concentrations of compound. The p24 antigen in the culture supernatants was assayed by ELISA.

HIV-1 integrase = biological target: T1, HIV-1 integrase (Human immunodeficiency virus type 1 group M subtype B, UniProt P04585); assay: Binding to HIV-1 integrase by SPR (BIAcore)
T1 construct: Integrase was immobilized on the surface of the chip
Experimental: The interaction between the compound and HIV-1 integrase (IN) was determined by SPR using a BIAcore 3000TM biosensor system as previously described. Integrase was immobilized on the surface of the chip. To allow association, various concentrations of the compound diluted in HBS-EP was applied to a chip containing immobilized integrase. Dissociation of the compound from the integrase was monitored in real-time after application of buffer to wash the chip and the kinetic rate constants for dissociation (Kd) was obtained by fitting the real-time data using BIA evaluation software.

HIV-1 protease = biological target: T2, HIV-1 protease (Human immunodeficiency virus type 1 group M subtype B, UniProt P04585); assay: Inhibition assay of recombinant HIV-1 protease activity (fluorescent); format: biochemical
T2 construct: The recombinant HIV-1 protease (PR) was expressed and purified, as previously described; made in house
Experimental: The recombinant HIV-1 protease (PR) was expressed and purified, as previously described. HIV-1 PR was diluted in reaction buffer. The compounds were added and incubated for 30 min at room temperature. Fluorescent substrate DABCYL-γ-Abu-Ser-Gln-Asn-Tyr-Pro-Ile-Val-Gln-EDANS (Anaspec, San Jose, USA) was added to initiate the reaction. The mixture was allowed to react for 90 min and the change of the fluorescent signal was monitored. Negative (double distilled water) and positive (1 μM indinavir) controls were included. The percent inhibition of PR activity was calculated.

[10] = biological target: T3, HIV-1 reverse transcriptase (Human immunodeficiency virus type 1 group M subtype B, UniProt P04585); assay: Inhibition assay of recombinant HIV-1 RT activity (ELISA); format: biochemical
T3 construct: purchased Roche, Mannheim, Germany
Experimental: HIV-1 reverse transcriptase (RT) activity was measured by the ELISA RT kit using a commercially available kit (Roche, Mannheim, Germany) according to the instructions of the manufacturer. The compounds were incubated with DIG-labeled reaction mixture at 37 °C for 2 h, then anti-DIG-POD solution was added, followed by substrate ABTS. Foscarnet was used as a positive control. The absorbency at 405 nm/490 nm was read on the Bio-Tek ELx 800 ELISA reader.

[11] = design: method as in PMID 12775425; conditions: cited from earlier work
[12] = Human immunodeficiency virus 1, 72 h, C8166, HIV-1IIIB, syncytia, 3 days, read-out: EC50
[13] = Human immunodeficiency virus 2, 72 h, C8166, HIV-2ROD, syncytia, 3 days, read-out: EC50
[14] = Human immunodeficiency virus 1, 168 h, PBMC, HIV-1KM018, p24, 7 days, read-out: EC50
[15] = Human immunodeficiency virus 2, 72 h, C8166, HIV-2CBL-20, syncytia, 3 days, read-out: EC50
[16] = Human immunodeficiency virus 2, C8166, 72 h
[17] = cell-free system, in words, listed as 7-hydroxymethyl-CPT

For CC[C@@]1(O)C(=O)OCc2c1cc1n(c2=O)Cc2cc3c([N+](=O)[O-])cccc3nc2-1 [9-nitrocamptothecin (9NC), 9-nitrocamptothecin], the “tumor necrosis factor-mediated activation of HIV-1” value (HIV-1 [1]) is listed as “inhibited”, the “inhibition of HIV-1 replication” value (HIV-1 [2]) is listed as “showed inhibition” and the HIV-1 replication (HIV-1 [3]) is listed as “reduced”.
For Cc1cn([C@H]2C[C@H](N=[N+]=[N-])[C@@H](CO)O2)c(=O)[nH]c1=O [AZT, reference compound], the EC50 (HIV-1IIIB; C8166, HIV-1IIIB, syncytia, 3 days) was 0.003 ± 0.0003 µg/mL (≈ 0.0112 µM), the CC50 (PBMC) was 0.45(mg/ml and the CC50 (C8166) was 1.12(mg/ml). It also gave an EC50 (HIV-1KM018; PBMC, HIV-1KM018, p24, 7 days) of 0.0024 ± 0.0003 µg/mL (≈ 0.00898 µM).
For CC[C@@]1(O)C(=O)OCc2c1cc1n(c2=O)Cc2cc3ccccc3nc2-1 [Compound 1, Camptothecin], the “inhibition of replication of HIV” value (HIV) is given as “weakly inhibit”, the EC50 (HIV-1IIIB; [12]) is given as 0.0057 ± 0.0001 µg/mL (≈ 0.0164 µM) and the EC50 (HIV-2ROD; [13]) is given as 0.0067 ± 0.0001 µg/mL (≈ 0.0192 µM). It also gave a CC50 at 3 days ([4]; PBMC (peripheral blood mononuclear cells), PHA-stimulated, PBMC, MTT, read-out: CC50) of 0.0759 ± 0.0131 µg/mL (≈ 0.218 µM), a CC50 (C8166; 3 days) of 137.8 ± 7.8 ng/mL (≈ 0.396 µM) and a CC50 at 3 days ([5]; C8166 cells, C8166, MTT, 3 days, read-out: CC50) of 0.138 µg/mL (≈ 0.396 µM). The “inhibition of replication of equine anemia virus” value (equine anemia virus) was “weakly inhibit”, the EC50 (HIV-1KM018; [14]) was 0.0074 ± 0.0011 µg/mL (≈ 0.0212 µM) and the EC50 (HIV-2CBL-20; [15]) was 0.004 ± 0.0003 µg/mL (≈ 0.0115 µM).
For CC[C@@]1(O)C(=O)OCc2c1cc1n(c2=O)Cc2cc3cc(O)ccc3nc2-1 [Compound 2, 10-hydroxycamptothecin], the EC50 (HIV-1IIIB; Human immunodeficiency virus 1, C8166, 72 h) was 0.0334 ± 0.0003 µg/mL (≈ 0.0917 µM), the EC50 (HIV-2ROD; [16]) was 0.025 ± 0.0009 µg/mL (≈ 0.0686 µM) and the CC50 at 3 days ([4]; PBMC, MTT, read-out: CC50) was 0.0363 ± 0.0118 µg/mL (≈ 0.0996 µM). The CC50 at 3 days ([5]; C8166, MTT, 3 days, read-out: CC50) was 0.141 ± 0.0097 µg/mL (≈ 0.387 µM), the EC50 (HIV-1KM018; Human immunodeficiency virus 1, PBMC, 168 h) was 0.0105 ± 0.0004 µg/mL (≈ 0.0288 µM) and the EC50 (HIV-2CBL-20; [16]) was 0.0132 ± 0.001 µg/mL (≈ 0.0362 µM).
For CC[C@@]1(O)C(=O)OCc2c1cc1n(c2=O)Cc2c-1nc1ccccc1c2CO [Compound 3, 7-Hydroxymethylcamptothecin], the EC50 (HIV-1IIIB; [12]) was 0.0008 ± 0.0002 µg/mL (≈ 0.00211 µM), the CC50 at 3 days [6] was 0.041 µg/mL (≈ 0.108 µM) and the EC50 (HIV-1IIIB/H9; Human immunodeficiency virus 1, C8166 with HIV-1IIIB/H9, co-cultivation, 6 h) was greater than 2 µg/mL. For the same compound, the “inhibition of viral cell-to-cell transmission” value (HIV-1IIIB/H9; in words) was “no inhibition”, the “selective killing of chronically infected cells (H9/HIV-1IIIB compared with uninfected H9)” value (H9/HIV-1IIIB [7]) was “no selective killing” and the CC50 at 3 days [8] was 0.0157 µg/mL (≈ 0.0415 µM). It also gave an EC50 (H9/HIV-1IIIB [9]) greater than 17 µg/mL, an EC50 (HIV-2ROD; [13]) of 0.0024 ± 0.0002 µg/mL (≈ 0.00634 µM) and a Kd (HIV-1 integrase) of 64.9 µM. For the same compound, the inhibition of integrase (HIV-1 integrase; [17]) was “no inhibition; also recorded: did not show any inhibition”, the CC50 at 3 days [4] was 0.06 ± 0.0101 µg/mL (≈ 0.159 µM) and the CC50 at 3 days [5] was 0.159 ± 0.0137 µg/mL (≈ 0.419 µM). For the same compound, the EC50 (HIV-1KM018; [14]) was 0.0009 ± 0.0001 µg/mL (≈ 0.00238 µM), the EC50 (HIV-1 protease) was greater than 106 µM and the inhibition of protease (HIV-1 protease; [17]) was “no inhibition; also recorded: did not show any inhibition”. For the same compound, the EC50 (HIV-2CBL-20; [15]) was 0.0005 ± 0.0001 µg/mL (≈ 0.00132 µM), the EC50 [10] was greater than 44.9 µM and the “inhibition of reverse transcriptase” value [10, 17] was “no inhibition; also recorded: did not show any inhibition”.
In the case of CC[C@@]1(O)C(=O)OCc2c1cc1n(c2=O)Cc2cc3c(CN(C)C)c(O)ccc3nc2-1 [Topotecan], the “treatment of AIDS-related progressive multifocal leukoencephalopathy” value [11] is listed as “efficient”.
